According to patent US20260216229A1, “PROGRAMMABLE DNA PROTEOLYSIS TARGET CHIMERAS AND METHODS OF THEIR USE” (ARIZONA BOARD OF REGENTS ON BEHALF OF ARIZONA STATE …, priority 2023, published 2026):

How the values were obtained:
Format in all cases: cell-based
[1] = tested on: CDK6 mRNA; experiment: RT-PCR of CDK6 mRNA expression in U251 cells; conditions: 100 nM, 6 hours
Protocol: (§1) Subsequent RNA isolation and RT-PCR detection enabled a quantitative assessment of CDK6 and CDK4 mRNA expression levels. […] To further corroborate the mechanistic intricacies of DNA-PROTAC-V02, we probed its interaction with the proteasome pathway. […] Following an 8-hour treatment period, cells were collected, and Western blot analysis was conducted.

[2] = tested on: CDK4 mRNA; experiment: RT-PCR of CDK4 mRNA expression in U251 cells; conditions: 100 nM, 6 hours
Protocol: as §1

[3] = molecular target: T1, CDK6 (Homo sapiens, UniProt Q00534); experiment: Proteasome inhibition (MG132) assay of CDK6 degradation in U251 cells; conditions: 8-hour treatment
T1 construct: Western blot analysis of CDK6 degradation in U251 cells treated with distance-based DNA-PROTACs; endogenous in cells; host or cells: U-251 MG (U251) glioblastoma cells
T1 sequence (Q00534 whole entry): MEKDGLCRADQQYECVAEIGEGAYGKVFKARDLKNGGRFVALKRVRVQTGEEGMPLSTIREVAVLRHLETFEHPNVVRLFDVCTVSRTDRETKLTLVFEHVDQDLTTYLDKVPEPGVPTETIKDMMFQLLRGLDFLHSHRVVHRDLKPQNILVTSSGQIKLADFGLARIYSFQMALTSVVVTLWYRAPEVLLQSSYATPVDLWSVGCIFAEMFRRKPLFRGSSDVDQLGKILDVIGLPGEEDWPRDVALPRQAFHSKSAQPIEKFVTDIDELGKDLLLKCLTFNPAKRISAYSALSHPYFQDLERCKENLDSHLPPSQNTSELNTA
Protocol: One day prior to DNA-PROTACs transfection, cells were propagated into 6 cm cell culture dishes containing appropriate complete growth medium. Prior to transfection, complete medium was replaced with transfection medium (5% FBS, no Penstrep). DNA-PROTACs transfection was performed using lipofectamine 3000 reagent according to the protocols provided by the manufacture. All transfections were carried out in 6-cm dishes with 3 mL of media and concentrations of DNA-PROTACs were calculated according to this volume (3 mL). Briefly, for 50 nM concentration, 5 μL from a 30 µM DNA-PROTACs stock and 12 μL p3000 reagent was added to a tube containing 125 μL of OPTIM-MEM and 8 μL of Lipofectamine 3000 reagent was added to a separate tube containing 125 μL of OPTIM-MEM. Two tubes were incubated for 5 minutes at room temperature and DNA-PROTACs containing OPTI-MEM was then slowly added to the second tube with lipo3000. The solution in the tube was mixed well by pipetting up and down several times. […]
Protein concentration in all the cell lysates were measured by BCA protein assay kit and equal amounts from each lysate were mixed with 4×loading dye and boiled for 5 minutes followed by 2 minutes centrifugation prior to loading into SDS-PAGE gel. […]
Subsequent RNA isolation and RT-PCR detection enabled a quantitative assessment of CDK6 and CDK4 mRNA expression levels. […]

[4] = molecular target: T1, CDK6; experiment: Immunofluorescence staining / confocal analysis of CDK6 in U251 cells; conditions: 20 nM and 100 nM, compared to controls dsDNA, dsDNA-CDK6-i, dsDNA-E3-i
Protocol: U-251 MG cells were seeded into 10 mm confocal dishes (Ibidi) and incubated overnight. Subsequently, cells were quickly washed thrice with ice-cold PBS and then fixed with 4% paraformaldehyde for 20 min. After fixation, cells were washed with PBS and permeabilized with 0.1% Triton X-100 at room temperature for 10 min. The samples were then incubated in a blocking solution for 1 h at room temperature, followed by incubation with primary antibody overnight at 4° C. The primary antibody used was mouse CDK6 antibody (Abacm, 1:100). After washing thrice with PBST (PBS with 0.1% Tween 20), the samples were incubated with the secondary antibody in the dark for 1.5 h at room temperature. Cells were washed 3 times in PBST for 5 minutes each then incubated in the appropriate secondary antibodies supplemented CoraLite488-conjugated Goat Anti-Rabbit IgG(H+L) (Proteintech, 1:100) for 3 hrs. The nucleus was counterstained with DAPI (Hoechst 3342, 1 ug/mL) for 20 mins followed by 3 times wash in PBST. Finally, the slides were Imaging by Nikon X confocal.

[5] = molecular target: T1, CDK6; experiment: Western blot of CDK6 degradation in U251 cells transfected with DNA-PROTACs
Protocol: U-251 MG Glioblastoma Cell Line was grown in Dulbecco's Modified Eagles Medium (DMEM) containing 10% heat inactivated fetal bovine serum (FBS), streptomycin (5 μg/mL) and 5 U/mL penicillin 95 U/mL). All cell lines were maintained, and cell culture experiments were carried out in humidified incubators at 37° C. and 5% CO2 supplementation.
One day prior to DNA-PROTACs transfection, cells were propagated into 6 cm cell culture dishes containing appropriate complete growth medium. Prior to transfection, complete medium was replaced with transfection medium (5% FBS, no Penstrep). DNA-PROTACs transfection was performed using lipofectamine 3000 reagent according to the protocols provided by the manufacture. All transfections were carried out in 6-cm dishes with 3 mL of media and concentrations of DNA-PROTACs were calculated according to this volume (3 mL). Briefly, for 50 nM concentration, 5 μL from a 30 µM DNA-PROTACs stock and 12 μL p3000 reagent was added to a tube containing 125 μL of OPTIM-MEM and 8 μL of Lipofectamine 3000 reagent was added to a separate tube containing 125 μL of OPTIM-MEM. Two tubes were incubated for 5 minutes at room temperature and DNA-PROTACs containing OPTI-MEM was then slowly added to the second tube with lipo3000. The solution in the tube was mixed well by pipetting up and down several times. After incubating for 15-20 minutes at room temperature, 250 μL of DNA-PROTACs-lipofectamine complex was added drop wise onto cells containing the transfection medium. Transfection medium was mixed well before transferring the plate into the incubator. After appropriate time, cells were either harvested or replaced with fresh medium and incubated for desired time point prior to harvesting. For proteasome inhibition assay, 5 μM of MG-132 was incubated with cells for 2 h prior to transfection of DNA-PROTACs. Then, cells were incubated for another 12 h before lysing cells. Cell lysates were prepared by incubating cells in RIPA lysis buffer (25 mM Tris pH 7.6, 150 mM NaCl, 1% NP40, 1% deoxycholate, 0.1% SDS, 1× protease inhibitor cocktail from Roche and 1 mM of PMSF) on ice for 30 minutes and cell lysate was clarified by centrifugation at high speed (15 000 rpm) for 15 minutes. Clear supernatant was collected for further experiments.
Protein concentration in all the cell lysates were measured by BCA protein assay kit and equal amounts from each lysate were mixed with 4×loading dye and boiled for 5 minutes followed by 2 minutes centrifugation prior to loading into SDS-PAGE gel. Next proteins on the SDS-PAGE gel were transferred to a Nitrocellulose membrane by western blotting and the membrane was blocked with 5% milk in TBST (0.05% Tween 20) for 1 h. Primary antibodies (all Abcam antibodies were diluted 1:5000) were prepared in TBST with 2.5% milk and membranes were incubated overnight at 4° C. On the following day, membrane was washes for 15 minutes (Incubate for three times, 5 minutes each) and appropriate secondary antibodies (1:5000) were prepared in TBST and incubated with the membrane for 1 h at room temperature (RT). Membrane was washed for 15 minutes with TBST (incubate for three times, […]) prior to imaging.
The degradation efficiency of various DNA-PROTACs was evaluated through their transfection into U251 cells, conducted simultaneously to ensure uniform experimental conditions. A double-stranded DNA sequence without any ligand was utilized as a negative control, providing a baseline for comparison. Following a 14-hour treatment period, a duration selected based on preliminary time-course studies, the cells were harvested using trypsin digestion. The lysates obtained were then subjected to SDS-PAGE, followed by Western blot analysis to assess protein degradation. […] This finding highlights the efficacy of DNA-PROTAC V02 in targeting and reducing CDK6 protein levels. In comparison, DNA-PROTAC Versions 03 and 04 also facilitated protein degradation, albeit with varying degrees of efficiency. […]

[6] = molecular target: T2, CDK4 (Homo sapiens, UniProt P11802); experiment: Western blot of CDK4 degradation in U251 cells transfected with DNA-PROTACs
T2 construct: Dose- and Time-dependent Degradation of CDK6 and CDK4 in U251 Cells; endogenous in cells; host or cells: U-251 MG (U251) glioblastoma cells
T2 sequence (P11802 whole entry): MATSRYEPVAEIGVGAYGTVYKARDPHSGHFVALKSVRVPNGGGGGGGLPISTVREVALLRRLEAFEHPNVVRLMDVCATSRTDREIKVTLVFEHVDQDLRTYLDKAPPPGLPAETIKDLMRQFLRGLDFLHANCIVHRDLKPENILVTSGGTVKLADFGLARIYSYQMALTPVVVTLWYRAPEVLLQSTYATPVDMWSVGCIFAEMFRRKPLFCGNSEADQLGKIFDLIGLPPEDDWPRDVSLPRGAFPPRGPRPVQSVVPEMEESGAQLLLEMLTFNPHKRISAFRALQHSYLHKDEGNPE
Protocol: One day prior to DNA-PROTACs transfection, cells were propagated into 6 cm cell culture dishes containing appropriate complete growth medium. Prior to transfection, complete medium was replaced with transfection medium (5% FBS, no Penstrep). DNA-PROTACs transfection was performed using lipofectamine 3000 reagent according to the protocols provided by the manufacture. All transfections were carried out in 6-cm dishes with 3 mL of media and concentrations of DNA-PROTACs were calculated according to this volume (3 mL). Briefly, for 50 nM concentration, 5 μL from a 30 µM DNA-PROTACs stock and 12 μL p3000 reagent was added to a tube containing 125 μL of OPTIM-MEM and 8 μL of Lipofectamine 3000 reagent was added to a separate tube containing 125 μL of OPTIM-MEM. […]

Substance | CDK6 mRNA levels (RT-PCR) [1] | CDK4 mRNA levels (RT-PCR) [2] | CDK6 protein (Western blot) without MG132 treatment ([3]; 50 nM, no MG132) | CDK6 protein (Western blot) with MG132 pre-treatment ([3]; MG132 pre-treatment 1 hour, then 50 nM) | intracellular green fluorescence (CDK6 immunofluorescence) [4] | CDK6 degradation ([5]; 50 nM) | time for which CDK6 degradation was sustained ([5]; 50 nM, time course) | CDK6 protein degradation (Western blot) ([5]; 14-hour treatment, 50 nM and 100 nM, vs ligand-free dsDNA control) | concentration at which significant CDK6 degradation begins ([5]; 14 hours, angular series) | concentration at which dose-dependent degradation of CDK6 commences ([5]; dose series) | CDK4 protein degradation (target selectivity, controls) [6] | CDK6 protein degradation (target selectivity, controls) [5]
DNA-PROTAC-V02: DNA duplex of E3-i (pomalidomide) strand SEQ ID NO 3 and POI-i (palbociclib) strand SEQ ID NO 4 (chain 1 ACTCCATCTANTTCTACGCCA; chain 2 TGGCGTAGAANTAGATGGAGT; pomalidomide and palbociclib conjugated; modified_base 1 OTHER; Nucleotide with phosphorothioate linkage; modified_base 2 OTHER; modified_base 3 OTHER; misc_difference 11 E3 ligase attached to 3-Dimethoxytrityloxy-2-(3-(fluorenylmethoxycarbonylamino)propanamido)propyl-1-O-(2-cyanoethyl)-(N,N-diisopropyl)-phosphoramidite modified adenosine, cytidine, thymi; m) | does not elicit a decrease in mRNA levels | does not elicit a decrease in mRNA levels | reduction in CDK6 protein | rescue of CDK6 proteins | weakened intracellular green fluorescence | over 80% | up to 48 hours | most pronounced degradation of CDK6 | 20 nM | 10 nM | – | –
DNA-E3 ligand: control: dsDNA with E3 ligand only (chain 1 CTCCATCTATTCTACGCCA; chain 2 TTCTACGCCA; chain 1: DNA, linkages s2 o13 s3 (s phosphorothioate, o phosphodiester), methylation of C not given here; chain 2: DNA, linkages o6 s3 (s phosphorothioate, o phosphodiester), methylation of C not given here; further chemistry not fully specified) [reference compound] | – | – | – | – | – | – | – | – | – | – | did not induce notable protein degradation | did not induce notable protein degradation
